Read-outs that look alike come from different tables or passages of the source.
Columns and labels:
[1] = Cytotoxicity: 50% extinction of HB611 cells; assay type: cell-based; conditions: human, read-out: 50% cytotoxic concentration against HB611 cells
Experimental: (§1) HBV growth inhibitory activities of the compounds of the present invention were measured by a conventional method (K. Ueda, et al., Virology, 169, pp.213-216, 1989). HB611 cells (2×10^4, recombinant human hepatocellular carcinoma cells producing HBV) were cultured in Dulbecco ME medium containing 10% fetal bovine serum, streptomycin (100 μg/ml), penicillin (100 IU/ml), and Geneteicin (trade name, the antibiotic manufactured by Life Technologies, Co., Ltd., 0.2 mg/ml) at 37° C. The medium was changed with fresh medium on the second day and fifth day of the culture, and then the medium was changed with a medium containing a test compound at a final concentration of […] after 8, 11, and 14 days of the culture. Total cellular DNAs were collected on the 17th day of the culture. Amounts of the HBV-DNAs in the cells were measured by the Southern blotting method, and concentrations achieving 50% inhibition of cytoplasmic HBV-DNA synthesis were determined. concentrations of compounds required for 50% extinction of HB611 cells were also determined.

Hepatitis B virus (HBV) [2] = assay: HBV growth inhibition: inhibition of cytoplasmic HBV-DNA synthesis in HB611 cells (Southern blotting); assay type: cell-based
Experimental: Inhibitory activity against the growth of Hepatitis B virus (HBV)
as §1

[3] = system: human hepatitis B virus (HBV); conditions: literature; cited from earlier work
[4] = system: human immunodeficiency virus (HIV); conditions: literature; cited from earlier work
[5] = system: herpes simplex type 2 virus (HSV-2); conditions: literature; cited from earlier work
[6] = system: herpes simplex type 1 virus (HSV-1); conditions: literature; cited from earlier work
Hepatitis B virus (HBV) [7] = assay: HBV growth inhibitory activity of mouse serum after oral administration (HB611 cells); assay type: cell-based; conditions: serum 5% (V/V) in HB611 cell medium
Experimental: HBV growth inhibitory activity of mouse serum after oral administration
Groups of mice each consisting of three mice were administered orally with a test compound at a single dose of 1 g/kg or 0.3 g/kg. Blood was collected 30 minutes after the administration, and serum was prepared. HB611 cells (2×10^4, recombinant human hepatocellular carcinoma cells producing HBV) were cultured in Dulbecco ME medium containing 10% fetal bovine serum, streptomycin (100 μg/ml), penicillin (100 IU/ml), and Geneteicin (trade name, the antibiotic manufactured by Life Technologies, Co., Ltd., 0.2 mg/ml) at 37° C. The medium was changed with fresh medium on the second day and fifth day of the culture, and then the medium was changed with a medium containing a test serum at a final concentration of 5% (V/V) after 8, 11, and 14 days of the culture. Total cellular DNAs were collected on the 17th day of the culture. Amounts of the HBV-DNAs in the cells were measured by the Southern blotting method, and rates of inhibition of cytoplasmic HBV-DNA synthesis were determined. As a reference, a similar test was carried out using PMEA.

[8] = HB611 cells, compound in medium after 8, 11 and 14 days, DNA collected on 17th day, read-out: 50% inhibitory concentration against HBV-DNA synthesis
[9] = mouse serum 30 minutes after single oral dose of 0.3 g/kg

CC(C)(C)C(=O)OCOP(=O)(COCCn1cnc2c(N)ncnc21)OCOC(=O)C(C)(C)C [Reference 1, dipivaloyloxymethyl ester of PMEA] showed a CC50 [1] of 11 µM and an IC50 (Hepatitis B virus (HBV) [2]; HB611, read-out: 50% inhibitory concentration against HBV-DNA synthesis) of 18.8 µM.
In the case of Nc1nc(N)c2ncn(CCOCP(=O)(O)O)c2n1 [PMDAP, 9-(2-phosphonylmethoxy)ethyl-2,6-diaminopurine], the “reported as being effective against HBV” value [3] is given as “effective”, the “reported as being effective against HIV” value [4] is given as “effective” and the “reported as being effective against HSV-2” value [5] is given as “effective”. For the same compound, the “reported as being effective against HSV-1” value [6] was “effective”.
In the case of COc1ccccc1Sc1nc(N)nc2c1ncn2CCOCP(=O)(OCC(F)(F)F)OCC(F)(F)F [Compound No. 2, 2-amino-9-[2-[bis(2,2,2-trifluoroethyl)-phosphonylmethoxy]ethyl]-6-o-methoxyphenylthiopurine], the CC50 [1] is reported as over 1000 µM and the IC50 (Hepatitis B virus (HBV) [2]; [8]) is reported as 0.08 µM.
In the case of COc1cccc(Sc2nc(N)nc3c2ncn3CCOCP(=O)(OCC(F)(F)F)OCC(F)(F)F)c1 [Compound No. 3, 2-amino-9-[2-[bis(2,2,2-trifluoroethyl)-phosphonylmethoxy]ethyl]-6-m-methoxyphenylthiopurine], the CC50 [1] is reported as over 1000 µM and the IC50 (Hepatitis B virus (HBV) [2]; [8]) is reported as 0.04 µM.
With COc1ccc(Sc2nc(N)nc3c2ncn3CCOCP(=O)(OCC(F)(F)F)OCC(F)(F)F)cc1 [Compound No. 4, 2-amino-9-[2-[bis(2,2,2-trifluoroethyl)-phosphonylmethoxy]ethyl]-6-p-methoxyphenylthiopurine] the “Inhibitory rate against HBV-DNA synthesis” value (“Inhibitory rate” for short) (Hepatitis B virus (HBV) [7]; [9]) was 95.2%, the CC50 [1] was over 1000 µM and the IC50 (Hepatitis B virus (HBV) [2]; [8]) was 0.05 µM.
With Nc1nc(Sc2ccccc2)c2ncn(CCOCP(=O)(OCC(F)(F)F)OCC(F)(F)F)c2n1 [Compound No. 1, 2-amino-9-[2-[bis(2,2,2-trifluoroethyl)-phosphonylmethoxy]ethyl]-6-phenylthiopurine] the “Inhibitory rate” value (Hepatitis B virus (HBV) [7]; [9]) was 60.7%, the CC50 [1] was over 1000 µM and the IC50 (Hepatitis B virus (HBV) [2]; [8]) was 0.01 µM.
Compound Cc1ccc(Sc2nc(N)nc3c2ncn3CCOCP(=O)(OCC(F)(F)F)OCC(F)(F)F)cc1 [Reference 2, 9-[2-[bis(2,2,2-trifluoroethyl)phosphonylmethoxy]ethyl]-2-amino-6-p-toluylthiopurine] has a CC50 [1] of 108 µM and an IC50 (Hepatitis B virus (HBV) [2]; [8]) of 0.06 µM.
For Nc1ncnc2c1ncn2CCOCP(=O)(O)O [PMEA, 9-(2-phosphonylmethoxy) ethyladenine], the “reported as being effective against HBV” value [3] is listed as “effective”, the “Inhibitory rate” value (Hepatitis B virus (HBV) [7]; mouse serum 30 minutes after single oral dose of 1.0 g/kg) is listed as 35.5% and the “reported as being effective against HIV” value [4] is listed as “effective”. The “reported as being effective against HSV-2” value [5] was “effective” and the “reported as being effective against HSV-1” value [6] was “effective”.
